According to patent US9493411B2 (AbbVie Inc., priority 2013, dated 2016):
pEC50, pKi: −log10 of the molar value. Where two headings read alike, the source gives them in different places.

What was measured:
[1] = tested on: breast cancer cell line MX-1; assay: MX-1 cell line proliferation assay; type: cell-based; conditions: MX-1 cells, 3-day proliferation assay, Cell Titer Glo, read-out: Cellular proliferation: EC50
Procedure: The impact of compounds of the Examples on cancer cell proliferation was determined using the breast cancer cell line MX-1 (ATCC) in a 3-day proliferation assay and the data are reported in Table 1. MX-1 cells were maintained in RPMI 1640 medium (Sigma) supplemented with 10% FBS at 37° C. and an atmosphere of 5% CO2. For compound testing, MX-1 cells were plated in 96-well black bottom plates at a density of 5000 cells/well in 90 μL of culture media and incubated at 37° overnight to allow cell adhesion and spreading. Compound dilution series were prepared in DMSO via a 3-fold serial dilution from 3 mM to 0.1 μM. The DMSO dilution series were then diluted 1:100 in phosphate buffered saline, and 10 μL of the resulted solution were added to the appropriate wells of the MX-1 cell plate. The final compound concentrations in the wells were 3, 1, 0.3, 0.1, 0.03, 0.01, 0.003, 0.001, 0.0003 and 0.0001 μM.
Luminescence readings from the Cell Titer Glo assay were normalized to the DMSO treated cells and analyzed using the GraphPad Prism software with sigmoidal curve fitting to obtain EC50s. The minimum significant ratio (MSR) was determined to evaluate assay reproducibility (Eastwood et al., (2006) J Biomol Screen, 11: 253-261).

BRD4 (BDII_E352-M457) = target: T1, BRD4 (BDII_E352-M457) (Homo sapiens, UniProt O60885); assay: TR-FRET bromodomain binding assay, BRD4 second bromodomain; conditions: His-tagged BD2, Alexa647-labeled probe 30 nM; Ki calculated from IC50
T1 construct: made in house
Summary of the method: (§1)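 Read-out: TR-FRET ratio after 1 h at room temperature, normalized to controls and fitted for IC50, then converted to Ki. Reaction held 8 nM His-tagged domain, 1 nM Eu-anti-His antibody, Alexa647 probe (BDI 100 nM; BDII 30 nM) and test compound in 2% DMSO.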

BRD4 (BDI_K57-E168) = target: T2, BRD4 (BDI_K57-E168) (Homo sapiens, UniProt O60885); assay: TR-FRET bromodomain binding assay, BRD4 first bromodomain; conditions: His-tagged BD1, Alexa647-labeled probe 100 nM; Ki calculated from IC50
T2 construct: BD1: amino acids K57-E168; made in house
Summary of the method: as §1

| SMILES | pEC50 ([1]; Homo sapiens, MX1, 72 h) | pKi (BRD4 (BDII_E352-M457)) | pKi (BRD4 (BDI_K57-E168)) | pEC50 [1] |
| --- | --- | --- | --- | --- |
| Cc1[nH]c(-c2ccccc2NCC2CCOC2)cc1C(N)=O (single isomer, unassigned) [Example 18] | 5.55 | 5.63 | 6.74 |  |
| Cc1[nH]c(-c2ccccc2NCC2CCOC2)cc1C(N)=O (single isomer, unassigned) [Example 19] |  | 5.74 | 6.88 | 5.63 |
| Cc1[nH]c(-c2ccccc2NCc2ccccc2)cc1C(N)=O [Example 12, 5-[2-(benzylamino)phenyl]-2-methyl-1H-pyrrole-3-carboxamide] | 5.46 | 5.41 | 6.03 |  |
| Cc1[nH]c(-c2ccccc2NCC2CCCO2)cc1C(N)=O (centres unmarked) [Example 13, 2-methyl-5-{2-[(tetrahydrofuran-2-ylmethyl)amino]phenyl}-1H-pyrrole-3-carboxamide] | 5.48 | 5.34 | 6.11 |  |
| Cc1[nH]c(-c2ccccc2NCC2CCCC2)cc1C(N)=O [Example 14, 5-{2-[(cyclopentylmethyl)amino]phenyl}-2-methyl-1H-pyrrole-3-carboxamide] | 6.33 | 6.14 | 6.68 |  |
| Cc1[nH]c(-c2ccccc2NCC2CCOC2)cc1C(N)=O (centres unmarked) [Example 17, 2-methyl-5-{2-[(tetrahydrofuran-3-ylmethyl)amino]phenyl}-1H-pyrrole-3-carboxamide] | 5.82 | 5.73 | 6.61 |  |
| CCCCNc1ccccc1-c1cc(C(N)=O)c(C)[nH]1 [Example 27, 5-[2-(butylamino)phenyl]-2-methyl-1H-pyrrole-3-carboxamide] | 5.89 | 5.83 | 6.42 |  |
| Cc1[nH]c(-c2ccccc2NCc2cccs2)cc1C(N)=O [Example 38, 2-methyl-5-{2-[(thiophen-2-ylmethyl)amino]phenyl}-1H-pyrrole-3-carboxamide] | 5.42 | 5.94 | 6.21 |  |
| Cc1[nH]c(-c2ccccc2NCC2CCN(C(=O)OC(C)(C)C)C2)cc1C(N)=O (centres unmarked) [Example 40, tert-butyl 3-({[2-(4-carbamoyl-5-methyl-1H-pyrrol-2-yl)phenyl]amino}methyl)pyrrolidine-1-carboxylate] | < 5.00 | 5.25 | 6.67 |  |
| Cc1[nH]c(-c2ccccc2NCC2CCNC2)cc1C(N)=O (centres unmarked) [Example 42, 2-methyl-5-{2-[(pyrrolidin-3-ylmethyl)amino]phenyl}-1H-pyrrole-3-carboxamide] | < 5.00 | 4.84 | 6.35 |  |
| Cc1[nH]c(-c2ccccc2NCC2CCNCC2)cc1C(N)=O [Example 43, 2-methyl-5-{2-[(piperidin-4-ylmethyl)amino]phenyl}-1H-pyrrole-3-carboxamide] | < 5.00 | 4.96 | 6.33 |  |
| Cc1[nH]c(-c2ccccc2NCCC2CCN(C(=O)OC(C)(C)C)CC2)cc1C(N)=O [Example 44, tert-butyl 4-(2-{[2-(4-carbamoyl-5-methyl-1H-pyrrol-2-yl)phenyl]amino}ethyl)piperidine-1-carboxylate] | < 5.00 | 5.75 | 6.49 |  |
| Cc1[nH]c(-c2ccccc2NC[C@H]2CC[C@@H](NC(=O)OC(C)(C)C)CC2)cc1C(N)=O [Example 45, tert-butyl [cis-4-({[2-(4-carbamoyl-5-methyl-1H-pyrrol-2-yl)phenyl]amino}methyl)cyclohexyl]carbamate] | 5.26 | 5.03 | 6.36 |  |
| Cc1[nH]c(-c2ccccc2NC[C@H]2CC[C@H](NC(=O)OC(C)(C)C)CC2)cc1C(N)=O [Example 46, tert-butyl [trans-4-({[2-(4-carbamoyl-5-methyl-1H-pyrrol-2-yl)phenyl]amino}methyl)cyclohexyl]carbamate] | 5.31 | 4.79 | 6.37 |  |
| Cc1[nH]c(-c2ccccc2NCCC2CCNCC2)cc1C(N)=O [Example 47, 2-methyl-5-(2-{[2-(piperidin-4-yl)ethyl]amino}phenyl)-1H-pyrrole-3-carboxamide] | < 5.00 | 5.11 | 6.30 |  |
| Cc1[nH]c(-c2ccccc2NC[C@H]2CC[C@@H](N)CC2)cc1C(N)=O [Example 48, 5-(2-{[(cis-4-aminocyclohexyl)methyl]amino}phenyl)-2-methyl-1H-pyrrole-3-carboxamide] | 5.02 | 5.21 | 6.65 |  |

| SMILES | pEC50 ([1]; Homo sapiens, MX1, 72 h) | pKi (BRD4 (BDII_E352-M457)) | pKi (BRD4 (BDI_K57-E168)) | pEC50 [1] |
| --- | --- | --- | --- | --- |
| Cc1[nH]c(-c2ccccc2NC[C@H]2CC[C@H](N)CC2)cc1C(N)=O [Example 49, 5-(2-{[(trans-4-aminocyclohexyl)methyl]amino}phenyl)-2-methyl-1H-pyrrole-3-carboxamide] | < 5.00 | 5.25 | 6.50 |  |
| Cc1[nH]c(-c2ccccc2NCc2cccc(N)c2)cc1C(N)=O [Example 53, 5-{2-[(3-aminobenzyl)amino]phenyl}-2-methyl-1H-pyrrole-3-carboxamide] | 5.38 | 5.50 | 6.18 |  |
| Cc1[nH]c(-c2ccccc2NCc2ccc(O)cc2)cc1C(N)=O [Example 54, 5-{2-[(4-hydroxybenzyl)amino]phenyl}-2-methyl-1H-pyrrole-3-carboxamide] | 6.72 | 5.41 | 6.23 |  |
| Cc1[nH]c(-c2ccccc2NCc2ccc3[nH]ccc3c2)cc1C(N)=O [Example 56, 5-{2-[(1H-indol-5-ylmethyl)amino]phenyl}-2-methyl-1H-pyrrole-3-carboxamide] | < 5.00 | 5.57 | 5.79 |  |
| Cc1[nH]c(-c2ccccc2N(Cc2ccc(OCCCN(C)C)cc2)CC2CCCC2)cc1C(N)=O [Example 57, 5-{2-[(cyclopentylmethyl){4-[3-(dimethylamino)propoxy]benzyl}amino]phenyl}-2-methyl-1H-pyrrole-3-carboxamide] | < 5.52 | 5.72 | 6.41 |  |
| Cc1[nH]c(-c2ccccc2NC2CCCCC2)cc1C(N)=O [Example 62, 5-[2-(cyclohexylamino)phenyl]-2-methyl-1H-pyrrole-3-carboxamide] | 6.28 | 5.91 | 6.71 |  |
| Cc1[nH]c(-c2ccccc2NC2CCOC2)cc1C(N)=O (centres unmarked) [Example 63, 2-methyl-5-[2-(tetrahydrofuran-3-ylamino)phenyl]-1H-pyrrole-3-carboxamide] | 5.61 | 5.16 | 6.45 |  |
| Cc1[nH]c(-c2ccccc2NC2CCc3ccccc32)cc1C(N)=O (centres unmarked) [Example 67, 5-[2-(2,3-dihydro-1H-inden-1-ylamino)phenyl]-2-methyl-1H-pyrrole-3-carboxamide] | < 5.52 | 6.09 | 6.34 |  |
| Cc1[nH]c(-c2ccccc2NC2CCSCC2)cc1C(N)=O [Example 68, 2-methyl-5-[2-(tetrahydro-2H-thiopyran-4-ylamino)phenyl]-1H-pyrrole-3-carboxamide] | 5.95 | 5.59 | 6.82 |  |
| Cc1[nH]c(-c2cccc(-c3ccc4c(ccn4C)c3)c2)cc1C(N)=O [Example 156, 2-methyl-5-[3-(1-methyl-1H-indol-5-yl)phenyl]-1H-pyrrole-3-carboxamide] |  | 4.66 | 5.07 |  |
| Cc1[nH]c(-c2cc(N)ccc2Oc2ccccc2)cc1C(N)=O [Example 161, 5-(5-amino-2-phenoxyphenyl)-2-methyl-1H-pyrrole-3-carboxamide] |  | 6.18 | 6.96 |  |
| Cc1[nH]c(-c2cc(NS(C)(=O)=O)ccc2Oc2ccccc2)cc1C(N)=O [Example 162, 2-methyl-5-{5-[(methylsulfonyl)amino]-2-phenoxyphenyl}-1H-pyrrole-3-carboxamide] |  | 6.12 | 7.23 |  |
| Cc1[nH]c(-c2cccc3[nH]cnc23)cc1C(N)=O [Example 163, 5-(1H-benzimidazol-4-yl)-2-methyl-1H-pyrrole-3-carboxamide] |  | 5.55 | 6.04 |  |
| Cc1[nH]c(-c2cccc3cc[nH]c23)cc1C(N)=O [Example 164, 5-(1H-indol-7-yl)-2-methyl-1H-pyrrole-3-carboxamide] |  | 5.69 | 6.00 |  |
| CCOC(=O)Cc1ccc(OCc2ccccc2)c(-c2cc(C(N)=O)c(C)[nH]2)c1 [Example 165, ethyl [4-(benzyloxy)-3-(4-carbamoyl-5-methyl-1H-pyrrol-2-yl)phenyl]acetate] |  | 5.13 | 6.23 |  |
| Cc1[nH]c(-c2cc(CC(=O)O)ccc2OCc2ccccc2)cc1C(N)=O [Example 166, [4-(benzyloxy)-3-(4-carbamoyl-5-methyl-1H-pyrrol-2-yl)phenyl]acetic acid] |  | 4.98 | 6.20 |  |
